# Data published in article PMC8684776, “Discovery and characterization of potent And‐1 inhibitors for cancer treatment” (Clinical and Translational Medicine, 2021).
# Key:
# And‐1 = molecular target: T1, And‐1 (Homo sapiens, UniProt O75717); assay: Immunoblot of And‐1 expression in IGROV1 cells; format: cell-based; conditions: read-out: IC50, And‐1 expression
# T1 construct: expressed in transfected cells
# T1 sequence (O75717 1-1129): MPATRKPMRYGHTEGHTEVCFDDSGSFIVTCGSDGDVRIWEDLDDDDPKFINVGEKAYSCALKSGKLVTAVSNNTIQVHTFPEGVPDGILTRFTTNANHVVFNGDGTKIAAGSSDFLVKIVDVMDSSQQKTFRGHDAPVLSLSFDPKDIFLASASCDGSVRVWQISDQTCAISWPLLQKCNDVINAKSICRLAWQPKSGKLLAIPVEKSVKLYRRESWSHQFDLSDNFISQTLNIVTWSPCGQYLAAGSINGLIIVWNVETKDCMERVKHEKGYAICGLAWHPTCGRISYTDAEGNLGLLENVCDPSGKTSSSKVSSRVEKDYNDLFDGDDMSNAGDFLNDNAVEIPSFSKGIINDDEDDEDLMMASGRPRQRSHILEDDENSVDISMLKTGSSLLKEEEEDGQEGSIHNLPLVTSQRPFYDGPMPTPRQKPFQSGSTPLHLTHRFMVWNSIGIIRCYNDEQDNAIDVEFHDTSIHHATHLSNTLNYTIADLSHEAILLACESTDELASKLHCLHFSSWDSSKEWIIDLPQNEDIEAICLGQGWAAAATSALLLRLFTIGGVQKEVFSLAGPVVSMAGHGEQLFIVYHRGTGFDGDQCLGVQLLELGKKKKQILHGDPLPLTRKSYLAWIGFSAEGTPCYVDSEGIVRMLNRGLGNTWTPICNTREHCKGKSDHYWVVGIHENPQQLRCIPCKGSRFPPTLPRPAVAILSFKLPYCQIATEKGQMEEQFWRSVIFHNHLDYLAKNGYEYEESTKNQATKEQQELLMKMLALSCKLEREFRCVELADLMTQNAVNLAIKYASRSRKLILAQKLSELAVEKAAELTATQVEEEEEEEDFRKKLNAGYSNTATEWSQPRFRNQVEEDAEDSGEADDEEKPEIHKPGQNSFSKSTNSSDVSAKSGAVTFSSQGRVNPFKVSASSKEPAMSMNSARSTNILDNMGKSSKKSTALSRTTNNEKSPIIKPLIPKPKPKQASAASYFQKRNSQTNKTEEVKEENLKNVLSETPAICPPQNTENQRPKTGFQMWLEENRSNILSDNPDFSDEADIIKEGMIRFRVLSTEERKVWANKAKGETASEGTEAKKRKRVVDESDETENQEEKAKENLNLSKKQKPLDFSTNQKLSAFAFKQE
# From the text: The assay was as previously described.[45]
# To evaluate whether And‐1 is required for tumor survival, we examined the dependence of a broad range of tumor cells on And‐1 by using dependency score analysis from DepMap (https://depmap.org/portal/). […] To identify And‐1 specific pharmacologic inhibitor, we established an HTS assay to identify small molecules that can inhibit And‐1 by inducing its degradation. To this end, we first established two stable cell lines, HEK293T‐And‐1‐Luc expressing And‐1 protein fused to a luciferase reporter gene, and HEK293T‐Luc expressing luciferase only (Figure 1B). HEK293T‐And‐1‐Luc cells allow us to monitor And‐1 protein levels by measuring luciferase activity in a high‐throughput manner. Using these cell lines, we conducted a screening for And‐1 inhibitors against a LOPAC small molecule library by using a quantitative HTS (qHTS) as we described previously.[46]
# (A) Dependency score of WDHD1/And‐1 analyzed by DepMap. […] (B) Establishment of HEK293T‐And‐1‐Luc and HEK293T‐Luc cells for the high‐throughput screen (HTS). (C) Schematic diagram of quantitative HTS (qHTS) for And‐1 inhibitors. (D) Immunoblot analyses to detect And‐1 expression in IGROV1 cells treated with resveratrol at indicated concentrations. (E) Chemical structures of resveratrol and its three analogs as indicated. (F) Left, immunoblot analyses to detect And‐1 expression in IGROV1 cells treated with And‐1 inhibitors at the indicated concentration. Right, quantification of And‐1 expression shown in the left panel.
# IGROV1 CR cells = assay: Clonogenic assay, combination with cisplatin; format: cell-based, human
# Protocol: Synergy of each combination was indicated as combination index (CI) values. […] (C) Tumors of IGROV1 CR xenograft treated with control (vehicle), cisplatin (8 mg/kg/day intraperitoneally), CH3 (20 mg/kg/3days intraperitoneally), or a combination of CH3 and cisplatin for 3 weeks. Ruler scale is in centimeters. (D) Growth curves of IGROV1 CR xenografts. […] (E) IHC staining against And‐1 antibodies of tumor samples from four treated groups of mice. Scale bar: 50 μm. […] Ruler scale is in centimeters. (G) Growth curves of IGROV1 CR xenografts. […] (H) IHC staining against And‐1 antibodies of tumor samples from four treated groups of mice. Scale bar: 50 μm.
# MCF7 xenografts = assay: MCF7 xenograft in nude mice; format: in vivo, mouse
# Protocol: (A) Tumours of IGROV1 xenograft treated with vehicle or CH3 (20 or 40 mg/kg/3days intraperitoneally) for 3 weeks. Ruler scale is in centimeters. (B) Growth curves of IGROV1 xenografts. Data are represented as means ± SEM. ****p < 0.0001. (C) IHC staining against acidic nucleoplasmic DNA‐binding protein 1 (And‐1) and cleaved‐caspase3 antibodies of tumor samples from 3 groups of mice. Scale bar: 50 μm. Lower panel, quantification of And‐1and cleaved‐caspase 3 IHC score in tumors treated in A. ****p < 0.0001. (D) Tumors of MCF7 xenograft treated with vehicle or CH3 (20 or 40 mg/kg/3days intraperitoneally) for 3 weeks. Ruler scale is in centimeters. (E) Growth curves of MCF7 xenografts. Data are represented as means ± SEM. ****p < 0.0001. (F) IHC staining against And‐1 and cleaved‐caspase3 antibodies of tumor samples from three treated groups of mice. Scale bar: 50 μm. Lower panel, quantification of And‐1and cleaved‐caspase 3 IHC score in tumors treated in (D). *p < 0.1; **p < 0.01; ***p < 0.001; ****p < 0.0001
# into subsequent experiment groups.
# represent the longest and shortest diameters, respectively. During the drug treatment, the tumor volume
# and body weight were measured. […]
# IGROV1 CR xenografts = assay: Cisplatin resistant IGROV1 CR xenograft in nude mice; format: in vivo, mouse
structure (smiles),measurement,setting,value
"OB1OCc2cc(/C=C/c3ccc(Cl)c(Cl)c3)ccc21 [CH3, (E)‐5‐(3,4‐dichlorostyryl)benzo[c][1,2]oxaborol‐1(3H)‐ol]",DC50,And‐1,2.08 µM
same,synergy with cisplatin to reduce clonogenic capacity,IGROV1 CR cells,great synergy with cisplatin
same,And‐1 expression in tumor tissues (IHC),MCF7 xenografts; MCF7 xenograft tumors,inhibited And‐1 expression
same,cleaved caspase‐3 expression in tumor tissues (IHC),MCF7 xenografts; MCF7 xenograft tumors,induced the expression of cleaved caspase‐3
same,tumor growth,"MCF7 xenografts; breast MCF7 xenografts, nude mice, 20 mg/kg or 40 mg/kg intraperitoneal, 3 weeks",significantly reduced tumor growth
same,expression of And‐1 in tumours (IHC),IGROV1 CR xenografts,suppressed expression of And‐1 in tumours
same,"resistant tumour growth, combination with cisplatin vs cisplatin alone","IGROV1 CR xenografts; cisplatin 8 mg/kg + CH3 20 mg/kg or BZA 2 mg/kg, intraperitoneal, 3 weeks",significantly reduced resistant tumour growth
